Measured values: US20080242688A1, “Method 741” (ASTRAZENECA AB, priority 2007, published 2008)
Several values for one entry are separate records, joined by “and”; a condition that tells them apart may be missing. Equal values may be shown once.

How the values were obtained:
[1] = tested on: rats; assay: Cardiovascular effects in telemetered rats; format: in vivo, rat
Protocol: (§1) Effects of single oral doses of AZD0328 on mean, systolic and diastolic arterial blood pressures, heart rate, body temperature, locomotor activity and respiratory parameters were evaluated in rats by combining whole body plethysmography with telemetry (Table 3). […] The degree of hypertension, however, was similar at the 3 highest doses, which partly can be explained by the high individual variation in plasma exposure at each dose level. The effect on heart rate was, on the other hand, dose-related.

[2] = Cardiovascular effects in telemetered rats; format: in vivo, rat; settings: plasma, rat
Protocol: as §1

[3] = tested on: dog Purkinje fibre; assay: Dog isolated cardiac Purkinje fibres, action potential; settings: 0.5 and 1 Hz
Protocol: Effects of AZD0328 on cardiac action potentials were assessed in 4 dog Purkinje fibre preparations. (Table 3). The following action potential parameters were measured at the stimulation frequencies 0.5 and 1 Hz: action potential duration at 50% (APD50), 70% (APD70) and 90% (APD90) of repolarisation; the maximum velocity of the action potential upstroke (Vmax); the action potential amplitude (APA) and the resting membrane potential (RMP). At both stimulation frequencies, AZD0328 caused a concentration-dependent prolongation of APD50, APD70 and APD90, with significant effects at 5.6 μM and above. There was also an indication of proarrhythmic potential of the compound.

[4] = Multiple dose PK/TK, minipig; format: in vivo; settings: capsules fasted; for AUC / Cmax / Tmax: both sexes, Gottingen, minipig, in vivo, po
Source text: (§2) This section provides a summary of the pharmacokinetic and metabolism properties of AZD0328 derived from in vivo studies. […] The derived PK/TK parameters from these studies are presented in Table 4 for single dose studies (DMR4, 0619LR, 20030191PCR, DMO16, DMB10, DMW12, 50190, 0190DD and 03.330/1), and are presented in Table 5 multiple dose PK/TK studies (DMR4, 0612AR, DMB15, 50190, 0190DD and 0295AD).

[5] = Single dose PK/TK, rhesus monkey; format: in vivo; settings: for half-life: read-out: T½ (converted); for Vd: read-out: Vss
Protocol: Pharmacokinetic studies in rats and monkeys were used to estimate the plasma concentrations associated with doses at which AZD0328 improved cognitive performance in these species. For example, in rhesus monkeys, two studies were conducted to determine the pharmacokinetic profile of AZD0328 after administration of 0.048 and 1.7 mg per kg AZD0328. […] We thus estimated the peak plasma concentrations in monkeys that received AZD0328 at 0.00048-0.016 mg per kg to be 0.6-18 nM. Similar studies and calculations in rats, when extended to mice, led us to estimate plasma concentrations at 0.001-0.1 mg per kg body weight to be 0.29-100 nM in these species.
as §2

[6] = tested on: FFX Sprague Dawley rats; assay: Hippocampal long-term potentiation in vivo; parameters: species or system rat; settings: 0.3 mg/kg
Protocol: AZD0328 reversed a deficit in hippocampal long-term potentiation (LTP) in FFX Sprague Dawley rats (Table 2). […] 0.3 mg/kg of AZD0328 was ineffective in this test.

[7] = target: T1, hERG-encoded potassium channel (Homo sapiens, UniProt Q12809); assay: hERG patch clamp; format: cell-based; settings: HEK cells, read-out: IC50, block of hERG tail current (estimated)
T1 construct: expressed in transfected cells; host or cells: HEK cells
Protocol: A study was performed to evaluate the effects of AZD0328 on the α-subunit of the voltage-dependent potassium channel encoded by the human ether-a-go-go-related gene (hERG), using the patch clamp technique (Table 3).

[8] = Pentylenetetrazole-induced seizure threshold; settings: in vivo; rat, oral; read-out: NOAEL, proconvulsant activity
Protocol: AZD0328 was assessed for its ability to influence the threshold to clonic convulsions caused by an intravenous infusion of pentylenetetrazole (PTZ) in rats (Table 3).

[9] = Single dose PK/TK, rabbit; settings: New Zealand White, in vivo
Source text: as §2

[10] = Single dose PK/TK, minipig; format: in vivo
Source text: as §2

[11] = Ames test
Source text: The genotoxic potential of AZD0328 has been evaluated in the Ames test and in the Mouse lymphoma test. AZD0328 was not mutagenic in either of these tests.

[12] = 73.1 mg/kg, minipig 2F+2M, 50190, 73.1 mg/kg (338 μmol/kg), day 1
[13] = 73.1 mg/kg, minipig 2F+2M, 50190, 73.1 mg/kg (338 μmol/kg), day 7
[14] = 422 mg/kg, minipig 2F+2M, 50190, 422 mg/kg (1951 μmol/kg), day 7
[15] = both sexes, in vivo, rhesus monkey 2M+2F, 03.330/1, iv 1.15 mg/kg (5.32 μmol/kg)
[16] = both sexes, in vivo, rhesus monkey 2M+2F, 03.330/1, iv 3.85 mg/kg (17.8 μmol/kg)
[17] = both sexes, plasma, im, rhesus monkey 2F+2M, A7AGBU1006, intramuscular 1.7 mg/kg (8 μmol/kg)
[18] = both sexes, plasma, rhesus monkey 2M+2F, 03.330/1, iv 0.385 mg/kg (1.78 μmol/kg)
[19] = male, plasma, im, rhesus monkey 3M, A7AGBU1010, intramuscular 0.048 mg/kg (0.22 μmol/kg)
[20] = female, sc, rabbit 3F, DMB10, single subcutaneous 2.16 mg/kg (10 μmol/kg)
[21] = female, sc, rabbit 3F, DMB10, single subcutaneous 6.49 mg/kg (30 μmol/kg)
[22] = both sexes, Gottingen, in vivo, minipig 2M+2F, 50190, single oral 73.1 mg/kg (338 μmol/kg), capsules, fasted
[23] = both sexes, Gottingen, in vivo, minipig 2M+2F, 50190, single oral 563 mg/kg (2602 μmol/kg), capsules, fasted
[24] = male, Gottingen, in vivo, minipig 3M, DMW12, single oral 16.9 mg/kg (78.1 μmol/kg), solution, fed

T1 sequence (Q12809 whole entry): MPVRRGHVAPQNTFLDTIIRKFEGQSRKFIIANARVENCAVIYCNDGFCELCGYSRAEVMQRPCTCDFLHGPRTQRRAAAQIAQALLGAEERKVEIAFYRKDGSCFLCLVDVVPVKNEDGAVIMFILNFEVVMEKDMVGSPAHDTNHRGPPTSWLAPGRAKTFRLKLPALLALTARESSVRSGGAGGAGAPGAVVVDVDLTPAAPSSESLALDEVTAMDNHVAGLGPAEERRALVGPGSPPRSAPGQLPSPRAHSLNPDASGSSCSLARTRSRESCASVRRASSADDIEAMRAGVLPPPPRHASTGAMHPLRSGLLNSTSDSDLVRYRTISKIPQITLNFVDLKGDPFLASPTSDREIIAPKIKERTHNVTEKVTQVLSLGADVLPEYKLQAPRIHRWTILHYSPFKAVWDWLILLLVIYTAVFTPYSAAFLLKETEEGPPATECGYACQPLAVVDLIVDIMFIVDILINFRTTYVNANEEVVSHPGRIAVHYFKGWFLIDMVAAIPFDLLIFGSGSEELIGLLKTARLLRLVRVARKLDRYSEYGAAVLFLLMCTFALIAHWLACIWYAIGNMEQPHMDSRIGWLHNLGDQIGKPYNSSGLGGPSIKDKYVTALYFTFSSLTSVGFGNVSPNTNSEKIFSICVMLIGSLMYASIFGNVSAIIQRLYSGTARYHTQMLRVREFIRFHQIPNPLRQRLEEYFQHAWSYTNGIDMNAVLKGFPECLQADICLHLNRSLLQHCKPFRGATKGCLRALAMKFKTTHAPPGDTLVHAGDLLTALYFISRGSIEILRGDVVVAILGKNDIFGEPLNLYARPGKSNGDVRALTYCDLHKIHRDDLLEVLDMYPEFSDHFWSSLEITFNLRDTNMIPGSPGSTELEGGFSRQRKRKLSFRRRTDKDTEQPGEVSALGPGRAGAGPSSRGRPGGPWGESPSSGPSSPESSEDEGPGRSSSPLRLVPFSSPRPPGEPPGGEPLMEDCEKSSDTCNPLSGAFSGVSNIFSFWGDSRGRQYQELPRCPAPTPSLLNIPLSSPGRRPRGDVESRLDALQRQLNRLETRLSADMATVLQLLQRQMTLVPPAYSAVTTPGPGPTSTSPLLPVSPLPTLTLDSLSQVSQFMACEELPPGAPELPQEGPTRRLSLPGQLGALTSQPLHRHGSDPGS

SMILES: c1cnc2c(c1)C[C@@]1(CN3CCC1CC3)O2 [AZD0328, (R)-Spiro[1-azabicyclo[2.2.2]octane-3,2′(3′H)-furo[2,3-b]pyridine]]
- increase in HR ([1]; rat, highest dose (total Cmax 31.2 μM)): 19%
- dose without CV effect ([1]; rat, oral gavage): 1.1 mg/kg
- duration of BP and HR increase postdose ([1]; telemetered rats): increased for up to 6 h postdose.
- Cmax ([2]; po, highest dose, read-out: total Cmax): 31.2 µM
- Cmax ([2]; oral, 1.1 mg/kg, read-out: NOAEL (effect<10%) on cardiovascular function, total Cmax): 0.5 µM
- concentration with significant prolongation of APD50, APD70 and APD90 [3]: ≥ 5.6 µM
- AUC [4, 12]: 3140 ng·h/mL and 14.5 µM·h
- Cmax [4, 12]: 379 ng/mL and 1.75 µM
- Tmax [4, 12]: 2 to 6 h
- AUC [4, 13]: 4610 ng·h/mL and 21.3 µM·h
- Cmax [4, 13]: 794 ng/mL and 3.67 µM
- Tmax [4, 13]: 0.5 to 4 h
- AUC [4, 14]: 25700 ng·h/mL to 27700 ng·h/mL and 119 µM·h to 128 µM·h
- Cmax [4, 14]: 1420 ng/mL to 1570 ng/mL and 6.57 µM to 7.24 µM
- Tmax [4, 14]: 12 h
- AUC/dose ([4]; minipig 2F+2M, 50190, 73.1 mg/kg (338 μmol/kg), day 1): 0.0429 ± 0.0275
- AUC/dose ([4]; minipig 2F+2M, 50190, 73.1 mg/kg (338 μmol/kg), day 7): 0.0630 ± 0.0288
- AUC/dose ([4]; minipig 2F+2M, 50190, 422 mg/kg (1951 μmol/kg), day 7): 0.0610-0.0656
- half-life ([5]; both sexes, in vivo, rhesus monkey 2M+2F, 03.330/1, iv 0.385 mg/kg (1.78 μmol/kg)): 1.76 ± 0.43 h
- clearance [5, 15]: 0.853 L/h/kg
- half-life [5, 15]: 1.96 ± 0.63 h
- Vd [5, 15]: 2.52 ± 1.64 L/kg
- clearance [5, 16]: 0.867 L/h/kg
- half-life [5, 16]: 2.14 ± 0.39 h
- Vd [5, 16]: 2.85 ± 1.6 L/kg
- AUC [5, 17]: 0.634 ± 0.081 µg·h/mL
- Tmax [5, 17]: 0.25 h
- Cmax ([5]; both sexes, plasma, im, rhesus monkey 2F+2M, A7AGBU1006, intramuscular 1.7 mg/kg (8 μmol/kg), read-out: Cmax): 430 ng/mL and 1.99 µM
- half-life [5, 17]: 0.97 ± 0.12 h
- clearance [5, 18]: 1.26 L/h/kg
- Vd [5, 18]: 3.29 ± 2.32 L/kg
- Tmax [5, 19]: 0.25 h
- Cmax ([5]; male, plasma, im, rhesus monkey 3M, A7AGBU1010, intramuscular 0.048 mg/kg (0.22 μmol/kg), read-out: Cmax): 16.1 ng/mL and 74.6 nM
- half-life [5, 19]: 0.85 ± 0.23 h
- estimated peak plasma concentrations ([5]; monkeys, 0.00048-0.016 mg per kg): 0.6 to 18 nM
- Cmax ([5]; rhesus monkey, plasma, intramuscular, 0.016 mg/kg, rhesus monkeys, read-out: Cmax at NOAEL for behavioral side effects): 0.018 µM
- estimated free plasma Cmax ([5]; rhesus monkeys, 0.016 mg/kg (NOAEL)): 0.018 µM
- effect on hippocampal LTP [6]: ineffective
- IC50 [7]: 32 µM
- NOAEL [8]: 64.9 mg/kg
- half-life ([9]; rabbit, read-out: elimination half-life): < 5 h
- AUC [9, 20]: 1750 ng·h/mL and 8.1 µM·h
- Cmax [9, 20]: 589 ng/mL and 2.72 µM
- Tmax [9, 20]: 0.5 to 1.12 h
- half-life ([9]; female, sc, rabbit 3F, DMB10, single subcutaneous 2.16 mg/kg (10 μmol/kg), read-out: T½ (converted)): 2.71 ± 1.17 h
- AUC [9, 21]: 7340 ng·h/mL and 33.9 µM·h
- Cmax [9, 21]: 1.75 ± 0.056 µg/mL
- Tmax [9, 21]: 0.267 to 1.08 h
- half-life ([9]; female, sc, rabbit 3F, DMB10, single subcutaneous 6.49 mg/kg (30 μmol/kg), read-out: T½ (converted)): 4.56 ± 1.36 h
- AUC [10, 22]: 3140 ng·h/mL and 14.5 µM·h
- Cmax [10, 22]: 379 ng/mL and 1.75 µM
- Tmax [10, 22]: 2 to 6 h
- AUC [10, 23]: 18200 ng·h/mL and 84.2 µM·h
- Cmax [10, 23]: 1910 ng/mL and 8.84 µM
- Tmax [10, 23]: 12 h
- clearance ([10]; male, Gottingen, in vivo, minipig 3M, DMW12, iv 8.5 mg/kg (39.3 μmol/kg)): 2.13 L/h/kg
- half-life ([10]; male, Gottingen, in vivo, minipig 3M, DMW12, iv 8.5 mg/kg (39.3 μmol/kg), read-out: T½ (converted)): 3.71 ± 1.72 h
- Vd ([10]; male, Gottingen, in vivo, minipig 3M, DMW12, iv 8.5 mg/kg (39.3 μmol/kg), read-out: Vss): 11.1 ± 4.2 L/kg
- AUC [10, 24]: 404 ng·h/mL and 1.87 µM·h
- Cmax [10, 24]: 81.3 ng/mL and 376 nM
- Tmax [10, 24]: 1 to 4 h
- F ([10]; minipig 3M, DMW12, oral 16.9 mg/kg vs iv 8.5 mg/kg): 5.19 ± 2.22%
- mutagenicity [11]: not mutagenic
